The values below come from patent US20200261485A1, “COMPOSITIONS COMPRISING 3'-O-GLUCURONIDE EPICATECHIN AND METHODS OF MAKING AND USING SUCH COMPOSITIONS” (NESTEC S.A., priority 2015, published 2020).

Entries after “also recorded” stand apart in the source; their conditions may differ.

Experiment [1] has as its system endothelial nitric oxide synthase. As to the kind of experiment: Phosphorylation of endothelial nitric oxide synthase (western blot) in isolated aortic rat rings. The format is cell-based. Details: dose or concentration left out as unconfirmed. The note with it: isolated Wistar rat aortic rings, 1 h incubation, FIG. 12. The procedure:
Furthermore, comparative experiments were conducted on the expression of endothelial nitric oxide synthase in isolated aortic rat rings.
Thoracic aortas were obtained from male adults Wistar rats after euthanasia. Each aorta was carefully dissected and harvested cleaned of excess tissue and cut into three equal segments, approximately 7 mm long. All aortic rings were pre-incubated for 30 min in Krebs solution (20 mM Hepes buffer, pH 7.4, containing 119 mM NaCl, 4.7 mM KCl, 1 mM MgSO4, 0.4 mM NaH2PO4, 0.15 mM Na2HPO4, 5 mM NaHCO3, 1.25 mM CaCl2, 5.5 mM glucose) aerated with 95% O2 and 5% CO2 at 37° C. and then incubated with vehicle (DMSO 1%) or the different metabolites for 1 h. Metabolites were first dissolved in DMSO 1% and tested in a final concentration […]. At the end of the incubation period aortic rings were frozen at −70° C. until the homogenate preparation. Homogenates for western blot and western blot determinations were carried out by the regular procedures and phosphorylation level of endothelial nitric oxide synthase was evaluated.

Another experiment addresses T1, h-TRPA1 (Homo sapiens, UniProt O75762).
T1 construct: expressed in transfected cells; host or cells: CHO cells
As to the kind of experiment: Calcium imaging of activation of CHO cells expressing h-TRPA1. The class given is cell-based. The following applies: for Activity vs hTRPA1: CHO cells expressing h-TRPA1; for TRPA1 agonism (result in words): activation of CHO cells expressing h-TRPA1, FIGS. 4, 6, 7. On the procedure: Specifically, the activation of CHO cells expressing h-TRPA1 was tested according to the calcium imaging method described in Riera et al. (Riera, C. E., Vogel, H., Simon, S. A., Damak, S., & le Coutre, J. Sensory attributes of complex tasting divalent salts are mediated by TRPM5 and TRPV1 channels. J. Neurosci. 29, 2654-2662 (2009)).

Setting [2] is: concentration (max) tested 100 mM.
The mark [3] stands for this setting: concentration (max) tested 3 mM.

T1 sequence (O75762 whole entry): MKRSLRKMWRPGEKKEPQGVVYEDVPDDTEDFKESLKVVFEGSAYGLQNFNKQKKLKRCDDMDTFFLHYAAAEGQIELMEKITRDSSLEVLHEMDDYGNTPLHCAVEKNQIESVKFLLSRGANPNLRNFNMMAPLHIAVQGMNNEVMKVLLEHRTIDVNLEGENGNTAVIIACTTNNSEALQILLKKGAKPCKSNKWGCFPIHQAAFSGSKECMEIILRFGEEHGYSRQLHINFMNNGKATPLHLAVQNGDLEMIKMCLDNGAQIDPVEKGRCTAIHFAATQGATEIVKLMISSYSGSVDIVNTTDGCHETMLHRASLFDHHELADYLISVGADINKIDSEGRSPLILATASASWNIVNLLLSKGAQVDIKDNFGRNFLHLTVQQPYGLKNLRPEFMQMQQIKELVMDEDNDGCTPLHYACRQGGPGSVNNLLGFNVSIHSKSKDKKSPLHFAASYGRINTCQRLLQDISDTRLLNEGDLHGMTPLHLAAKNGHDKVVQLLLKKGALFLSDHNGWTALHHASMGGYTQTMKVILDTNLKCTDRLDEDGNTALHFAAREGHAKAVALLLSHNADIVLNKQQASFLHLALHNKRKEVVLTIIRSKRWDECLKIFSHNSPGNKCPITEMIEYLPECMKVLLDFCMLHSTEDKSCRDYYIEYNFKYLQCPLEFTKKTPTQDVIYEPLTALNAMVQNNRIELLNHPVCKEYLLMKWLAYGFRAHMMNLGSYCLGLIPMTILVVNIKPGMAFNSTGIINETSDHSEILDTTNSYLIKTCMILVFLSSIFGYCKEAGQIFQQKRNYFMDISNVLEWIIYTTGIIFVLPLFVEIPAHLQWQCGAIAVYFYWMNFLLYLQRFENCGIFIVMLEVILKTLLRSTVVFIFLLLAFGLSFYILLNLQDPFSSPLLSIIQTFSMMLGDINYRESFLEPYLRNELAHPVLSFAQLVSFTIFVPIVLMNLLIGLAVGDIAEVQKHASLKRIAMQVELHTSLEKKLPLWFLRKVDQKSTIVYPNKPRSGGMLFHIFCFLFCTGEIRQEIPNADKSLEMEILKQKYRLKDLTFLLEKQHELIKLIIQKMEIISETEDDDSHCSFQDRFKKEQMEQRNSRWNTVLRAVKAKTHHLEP

The EC50 is the concentration needed to bring the measured effect to its halfway point. With `O=C(O)[C@H]1O[C@@H](Oc2cc([C@H]3Oc4cc(O)cc(O)c4C[C@H]3O)ccc2O)[C@H](O)[C@@H](O)[C@@H]1O` [3′-O-glucuronide epicatechin], the “eNOS phosphorylation relative to control and chemically similar epicatechins” value in experiment [1] is “increased eNOS phosphorylation”. The “Activity vs hTRPA1” value at h-TRPA1 (concentration (max) tested 133 mM) is given as “Active”. Moreover, the “TRPA1 agonism (result in words)” value on h-TRPA1 is reported as “is a TRPA1 agonist; also recorded: agonist of the cation channel of TRPA1”. Further, the EC50 at h-TRPA1 (activation of hTRPA1 in CHO cells) was about 80 mM. Besides, the “Concentration dependence of activation of CHO cells expressing h-TRPA1” value at h-TRPA1 (different concentrations, dose-response curve, FIGS. 10 and 11) is on record as “activation occurs in a concentration-dependent manner”.
In the case of `COc1cc([C@H]2Oc3cc(O)cc(O)c3C[C@H]2O)ccc1O` [3′-O-methyl epicatechin], the “Activity vs hTRPA1” value at h-TRPA1 (setting [2]) is on record as “Inactive”. The figures for the “TRPA1 agonism (result in words)” value at h-TRPA1 and at h-TRPA1 (listed as 3′-methyl epicatechin) were “is not a TRPA1 agonist; also recorded: not TRPA1 agonists” and “not TRPA1 agonists”, respectively.
Take `O=S(=O)(O)Oc1cc([C@H]2Oc3cc(O)cc(O)c3C[C@H]2O)ccc1O` [3′-O-sulfate epicatechin]: the “Activity vs hTRPA1” value on h-TRPA1 (setting [2]) was “Inactive”. In addition, the “TRPA1 agonism (result in words)” value at h-TRPA1 is “is not a TRPA1 agonist; also recorded: not TRPA1 agonists”.
On to `COc1cc(C2Oc3cc(OS(=O)(=O)O)cc(O)c3CC2O)ccc1O` (stereo not drawn) [3′-methyl-7-sulfate-EC], for which, at h-TRPA1 (setting [2]), the “Activity vs hTRPA1” value is reported as “Inactive”.
As to `O=C(O)[C@H]1O[C@@H](Oc2ccc([C@H]3Oc4cc(O)cc(O)c4C[C@H]3O)cc2O)[C@H](O)[C@@H](O)[C@@H]1O` [4′-O-glucuronide epicatechin], in experiment [1], the “eNOS phosphorylation relative to control and chemically similar epicatechins” value was “increased eNOS phosphorylation”.
As to `COc1ccc(C2Oc3cc(O)cc(O)c3CC2O)cc1O` (stereo not drawn) [4′-methyl-EC], the “Activity vs hTRPA1” value on h-TRPA1 (setting [2]) is listed as “Inactive”.
`O=S(=O)(O)Oc1ccc(C2Oc3cc(O)cc(O)c3CC2O)cc1O` (stereo not drawn) [4′-sulfate-EC]: at h-TRPA1 (setting [2]), the “Activity vs hTRPA1” value is listed as “Inactive”.
As for `CC(C)c1ccc(NC(=O)Cn2cnc3c2c(=O)n(C)c(=O)n3C)cc1` [HC030031], the “Blockage of the activation of hTRPA1 by 3′-O-glucuronide epicatechin” value at h-TRPA1 (selective hTRPA1 antagonist added, FIG. 9) is on record as “blocked the activation of hTRPA1”.
`COc1ccc(C2CC(=O)c3c(O)cc(O)cc3O2)cc1O[C@@H]1O[C@H](C(=O)O)[C@@H](O)[C@H](O)[C@H]1O` (stereo partly drawn) [Hesperetin-3-O-Glucuronide]: the “Activity vs hTRPA1” value on h-TRPA1 (setting [3]) is reported as “Inactive”.
As to Hesperetin-4-O-Glucuronide, on h-TRPA1 (setting [3]), the “Activity vs hTRPA1” value is listed as “Inactive”.
Consider Hesperetin-7-3-O-Glucuronide, for which the “Activity vs hTRPA1” value on h-TRPA1 (setting [3]) is reported as “Inactive”.
